In paper PMC3539763 (ACS medicinal chemistry letters, 2010):
“Also recorded” adds a separate entry of the source. Each block holds one molecule with its values, some of them ahead of it.

Assays:
rat mGlu5 = rat mGlu5 (Rattus norvegicus, UniProt P31424); assay: calcium fluorescence; assay type: cell-based; conditions: for less potent than 10e: potentiation EC50 relative to 10e
[1] = stability in human liver microsomes; conditions: after 60 min
[2] = transcellular permeability; conditions: >20 × 10^-6 cm/sec is preferred for CNS targets
[3] = stability in rat liver microsomes; conditions: after 60 min
[4] = kinetic aqueous solubility screen; conditions: aqueous medium
[5] = test system: open field locomotor activity; assay: open field locomotor activity, compound dosed alone; assay type: in vivo, rat; conditions: dosed alone at 56.6 mg/kg
mGlu5 = mGlu5 (Rattus norvegicus, UniProt P31424); assay: radioligand binding with [3H]3-methoxy-PEPy; conditions: at highest concentration, 30 μM; partial and incomplete; data not shown
Chain of mGlu5 (P31424 21-1203): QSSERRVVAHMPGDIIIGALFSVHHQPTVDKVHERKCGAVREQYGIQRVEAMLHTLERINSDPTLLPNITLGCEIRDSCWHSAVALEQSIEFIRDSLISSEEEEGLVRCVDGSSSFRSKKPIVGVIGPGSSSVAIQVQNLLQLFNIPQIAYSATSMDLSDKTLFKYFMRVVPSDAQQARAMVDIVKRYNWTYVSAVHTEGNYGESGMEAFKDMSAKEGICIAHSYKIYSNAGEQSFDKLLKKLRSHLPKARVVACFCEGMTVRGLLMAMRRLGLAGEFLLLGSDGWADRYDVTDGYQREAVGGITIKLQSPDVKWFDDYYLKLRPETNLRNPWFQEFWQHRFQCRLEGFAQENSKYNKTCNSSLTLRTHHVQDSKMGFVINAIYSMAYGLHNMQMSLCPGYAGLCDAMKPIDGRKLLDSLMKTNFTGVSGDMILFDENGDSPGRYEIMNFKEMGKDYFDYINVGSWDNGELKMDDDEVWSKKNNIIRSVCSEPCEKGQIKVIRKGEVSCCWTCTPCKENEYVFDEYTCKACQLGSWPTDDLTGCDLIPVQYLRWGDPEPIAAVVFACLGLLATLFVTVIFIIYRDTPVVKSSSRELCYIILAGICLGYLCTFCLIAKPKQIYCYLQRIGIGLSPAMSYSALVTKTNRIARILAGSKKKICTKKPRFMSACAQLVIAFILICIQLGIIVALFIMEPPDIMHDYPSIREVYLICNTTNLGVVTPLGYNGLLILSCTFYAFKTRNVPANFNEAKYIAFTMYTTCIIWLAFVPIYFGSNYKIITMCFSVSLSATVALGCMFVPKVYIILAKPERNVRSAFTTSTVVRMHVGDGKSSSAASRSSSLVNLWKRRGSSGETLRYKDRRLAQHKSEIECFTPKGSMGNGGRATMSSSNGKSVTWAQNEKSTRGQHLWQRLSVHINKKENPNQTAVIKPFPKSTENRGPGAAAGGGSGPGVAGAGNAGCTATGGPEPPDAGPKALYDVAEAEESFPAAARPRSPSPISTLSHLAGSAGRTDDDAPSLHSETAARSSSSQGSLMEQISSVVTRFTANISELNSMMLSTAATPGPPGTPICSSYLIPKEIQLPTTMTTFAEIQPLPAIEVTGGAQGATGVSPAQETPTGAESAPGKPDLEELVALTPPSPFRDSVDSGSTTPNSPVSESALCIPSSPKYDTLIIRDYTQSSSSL

Chain of rat mGlu5 (P31424 21-1203): as above

less potent than 10e (rat mGlu5): > 5 fold
Compound: COC(=O)c1ccccc1N1CCN(C(=O)COCc2ccccc2)CC1 [10f]

less potent than 10e (rat mGlu5): > 5 fold
Compound: COc1ccccc1N1CCN(C(=O)COCc2ccccc2)CC1 [10c]

parent compound remaining [1]: less than 5%
transcellular permeability [2]: acceptable
parent compound remaining [3]: less than 5%
solubility kinetic [4]: > 30 µg/mL
displacement of [3H]3-methoxy-PEPy radioligand (mGlu5): ca. 50%
concentration at which compound alone slightly activates mGlu5 (rat mGlu5; CRC in absence of glutamate): above 30 μM
potency enhancement vs. lead 8 (rat mGlu5; potentiator of the glutamate EC20): > 3 fold
Compound: N#Cc1ccccc1N1CCN(C(=O)COCc2ccccc2)CC1 [10e]
sedation / abnormal behavior in open field locomotor activity [5]: no sedation or abnormal behavior; also recorded: without causing sedation
mGlu5 agonism of compound alone (rat mGlu5; compound alone, no glutamate, up to 10 μM): no inherent mGlu5 agonism; also recorded: no effect

EC50 (rat mGlu5): > 10 µM
Compound: O=C(COCc1ccccc1)N1CCN(c2ncccn2)CC1 [10h]
